{"source": "patent US5830869A", "about": "“Thiadiazole amide MMP inhibitors” (priority 1997, dated 1998)"}
{"biological_target": "Stromelysin (Homo sapiens, UniProt P08254)", "sequence (P08254 100-477)": "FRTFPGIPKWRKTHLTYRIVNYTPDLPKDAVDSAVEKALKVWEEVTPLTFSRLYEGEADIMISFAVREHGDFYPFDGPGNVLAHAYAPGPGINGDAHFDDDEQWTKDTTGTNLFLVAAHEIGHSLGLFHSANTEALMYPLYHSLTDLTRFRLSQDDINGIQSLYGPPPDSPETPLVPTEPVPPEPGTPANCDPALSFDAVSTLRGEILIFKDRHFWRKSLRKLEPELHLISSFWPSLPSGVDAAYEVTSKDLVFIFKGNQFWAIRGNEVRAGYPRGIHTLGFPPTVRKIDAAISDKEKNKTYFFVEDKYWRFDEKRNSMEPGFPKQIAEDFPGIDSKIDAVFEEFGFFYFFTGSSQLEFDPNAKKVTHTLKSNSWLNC", "assay": "Stromelysin inhibition, in vitro particle concentration fluorescence assay (TABLE 1, MMP Inhibition Constants)", "assay_type": "biochemical", "conditions": "fluorescein/biotin substrate, MMP buffer pH 7.5, room temperature, 15 min preincubation with enzyme, 1-3 h with substrate", "experimental": "Inhibitory activity is evaluated in one or more of the MMP enzymes (stromelysin, gelatinase, and collagenase) in vitro using particle concentration fluorescence assay. An inhibitor binds to MMP enzymes which prevents the degradation of a substrate by stromelysin, gelatinase, or collagenase. The substrate has attached to it a fluorescein and a biotin moiety. The intact substrate then binds to an avidin-coated particle via the biotin moiety. Once the particle is washed and dried, a fluorescent signal is generated since the fluorescent group is attached to the particle. Without an inhibitor present, the substrate is degraded by MMP enzymes and the fluorescein group is removed, therefore, no fluorescent signal can be detected. Testing compounds are dissolved in DMSO to the desired concentration, then the solutions are diluted to 1:5 with MMP buffer (50 mM Tris-HCl, pH 7.5; 150 mM NaCl; 0.02% NaN3). Serial two-fold dilutions of each compound are prepared. A concentrated, activated enzyme solution is transferred into each plate of the testing compounds, and the mixture is incubated at room temperature for 15 minutes. Thawed MMP substrate is then added into all plates, and the plates are incubated in the dark for 1-3 hours at room temperature. At this point, the substrate mixture is mixed with 0.1% avidin-coated polystyrene particles. After 15 minutes, the fluorescence values are measured following filtration and washing of the beads. Ki values are then calculated.", "units": {"Ki": "µM"}}
{"smiles": "C=CC[C@H](C(=O)Nc1n[nH]c(=S)s1)[C@@H](CC(C)C)NC(=O)OCc1ccccc1", "note": "(relative stereo) [Example 55, (R*,S*)-[2-[[(4,5-dihydro-5-thioxo-1,3,4-thiadiazol-2-yl)amino]carbonyl]-1-(2-methylpropyl)-4-pentenyl]carbamic acid phenylmethyl ester]", "Ki": 1.91}
{"smiles": "CC(C)C[C@@H](NC(=O)OCc1ccccc1)[C@H](Cc1ccccc1)C(=O)Nc1n[nH]c(=S)s1", "note": "(relative stereo) [Example 56, (R*,S*)-[1-[2-[(4,5-dihydro-5-thioxo-1,3,4-thiadiazol-2-yl)amino]-oxo-1(phenylmethyl)ethyl]-3-methylbutyl]carbamic acid phenylmethyl ester]", "Ki": 1.7}
{"smiles": "O=C(Nc1n[nH]c(=S)s1)[C@@H]1CC[C@H](C(=O)N(Cc2ccccc2)OCc2ccccc2)C1", "note": "(relative stereo) [Example 60, cis-N'-(4,5-dihydro-5-thioxo-1,3,4-thiadiazol-2-yl)-N-(phenylmethoxy)-N-(phenylmethyl)-1,3-cyclopentane dicarboxamide]", "Ki": 10.3}
{"smiles": "O=C(NC(C(=O)Nc1n[nH]c(=S)s1)c1ccccc1)OCc1ccccc1", "note": "(stereo not drawn) [Example 1, [2-[(4,5-dihydro-5-thioxo-1,3,4-thiadiazol-2-yl)amino]-2-oxo-1-phenylethyl]carbamic acid, phenylmethyl ester]", "Ki": 1.21}
{"smiles": "O=C(N[C@@H](CCc1ccccc1)C(=O)Nc1n[nH]c(=S)s1)OCc1ccccc1", "note": "[Example 2, (S)-[1-[[(4,5-dihydro-5-thioxo-1,3,4-thiadiazol-2-yl)amino]carbonyl]-3-phenylpropyl]carbamic acid phenylmethyl ester]", "Ki": 13.9}
{"smiles": "CC[C@H](C)[C@H](NC(=O)OCc1ccccc1)C(=O)Nc1n[nH]c(=S)s1", "note": "[Example 3, [S-(R*,R*)]-[1-[[(4,5-dihydro-5-thioxo-1,3,4-thiadiazol-2-yl)amino]carbonyl]-2-methylbutyl[carbamic acid phenylmethyl ester]", "Ki": 1.24}
{"smiles": "CC[C@H](C)[C@H](NC(=O)OCC1c2ccccc2-c2ccccc21)C(=O)Nc1n[nH]c(=S)s1", "note": "[Example 4, [S-(R*,R*)]-[1-[[(4,5-dihydro-5-thioxo-1,3,4-thiadiazol-2-yl)amino]carbonyl]-2-methylbutyl]carbamic acid 9H-fluoren-9-yl-methyl ester]", "Ki": 0.95}
{"smiles": "CCCCC(NC(=O)OCc1ccccc1)C(=O)Nc1n[nH]c(=S)s1", "note": "(stereo not drawn) [Example 5, [1-[[(4,5-dihydro-5-thioxo-1,3,4-thiadiazol-2-yl)amino]carbonyl]pentyl]carbamic acid phenylmethyl ester]", "Ki": 2.42}
{"smiles": "CC(C)(C)[C@H](NC(=O)OCc1ccccc1)C(=O)Nc1n[nH]c(=S)s1", "note": "[Example 6, (S)-[1-[[(4,5-dihydro-5-thioxo-1,3,4-thiadiazol-2-yl)amino]carbonyl]-2,2-dimethylpropyl]carbamic acid phenylmethyl ester]", "Ki": 0.53}
{"smiles": "CCC[C@H](NC(=O)OCc1ccccc1)C(=O)Nc1n[nH]c(=S)s1", "note": "[Example 7, (S)-[1-[[(4,5-dihydro-5-thioxo-1,3,4-thiadiazol-2-yl)amino]carbonyl]butyl]carbamic acid phenylmethyl ester]", "Ki": 2.31}
{"smiles": "O=C(NC(COCc1ccccc1)C(=O)Nc1n[nH]c(=S)s1)OCc1ccccc1", "note": "(stereo not drawn) [Example 8, [2-[(4,5-dihydro-5-thioxo-1,3,4-thiadiazol-2-yl)amino]-2-oxo-1-[(phenylmethoxy)methyl]ethyl]carbamic acid phenylmethyl ester]", "Ki": 8.06}
{"smiles": "O=C(NC(CSCc1ccccc1)C(=O)Nc1n[nH]c(=S)s1)OCc1ccccc1", "note": "(stereo not drawn) [Example 9, [2-[(4,5-dihydro-5-thioxo-1,3,4-thiadiazol-2-yl)amino]-2-oxo-1-[[(phenylmethyl)thio]methyl]ethyl]carbamic acid phenylmethyl ester]", "Ki": 9.45}
{"smiles": "CCCCCCCC(NC(=O)OCc1ccccc1)C(=O)Nc1n[nH]c(=S)s1", "note": "(stereo not drawn) [Example 10, [1-[[(4,5-dihydro-5-thioxo-1,3,4-thiadiazol-2-yl)amino]carbonyl]octyl]carbamic acid phenylmethyl ester]", "Ki": 6.32}
{"smiles": "O=C(N[C@@H](CC1CCCCC1)C(=O)Nc1n[nH]c(=S)s1)OCc1ccccc1", "note": "[Example 11]", "Ki": 6.1}
{"smiles": "O=C(N[C@H](C(=O)Nc1n[nH]c(=S)s1)C1CCCCC1)OCc1ccccc1", "note": "[Example 12, (S)-[1-(cyclohexyl)-2-[(4,5-dihydro-5-thioxo-1,3,4-thiadiazol-2-yl)amino]-2-oxoethyl]carbamic acid phenylmethyl ester]", "Ki": 0.84}
{"smiles": "CC(=O)NC(C(=O)Nc1n[nH]c(=S)s1)c1ccccc1", "note": "(stereo not drawn) [Example 13, α-(acetylamino)-N-(4,5-dihydro-5-thioxo-1,3,4-thiadiazol-2-yl)-benzeneacetamide]", "Ki": 1.8}
{"smiles": "O=C(CCc1ccccc1)NC(C(=O)Nc1n[nH]c(=S)s1)c1ccccc1", "note": "(stereo not drawn) [Example 14, N-[2-[(4,5-dihydro-5-thioxo-1,3,4-thiadiazol-2-yl)amino]-2-oxo-1-phenylethyl]benzenepropanamide]", "Ki": 0.64}
{"smiles": "O=C(CCCCc1ccccc1)NC(C(=O)Nc1n[nH]c(=S)s1)c1ccccc1", "note": "(stereo not drawn) [Example 15, N-[2-[(4,5-dihydro-5-thioxo-1,3,4-thiadiazol-2-yl)amino]-2-oxo-1-phenylethyl]benzenepentanamide]", "Ki": 1.38}
{"smiles": "O=C(COCc1ccccc1)NC(C(=O)Nc1n[nH]c(=S)s1)c1ccccc1", "note": "(stereo not drawn) [Example 16, N-(4,5-dihydro-5-thioxo-1,3,4-thiadiazol-2-yl)-α-[[(phenylmethoxy)acetyl]amino]benzeneacetamide]", "Ki": 0.38}
{"smiles": "CC(=O)NCSC(C)(C)C(NC(=O)OCc1ccccc1)C(=O)Nc1n[nH]c(=S)s1", "note": "(stereo not drawn) [Example 17, (2-(((acetylamino)methyl)thio)-1-(((4,5-dihydro-5--thioxo-1,3,4-thiadiazol-2-yl)amino)carbonyl)-2-methylpropyl)carbamic acid phenylmethyl ester]", "Ki": 1.77}
{"smiles": "CC(C)(C)OC(=O)NC(C(=O)Nc1n[nH]c(=S)s1)C(C)(C)/C=C\\c1ccccc1", "note": "(stereo not drawn) [Example 18, (Z)-(1-(((4,5-dihydro-5-thioxo-1,3,4-thiadiazol-2-yl)amino)carbonyl)-2,2-dimethyl-4-phenyl-3-butenyl)carbamic acid 1,1-dimethylethyl ester]", "Ki": 1.8}
{"smiles": "CC(C)(C)OC(=O)NC(C(=O)Nc1n[nH]c(=S)s1)C(C)(C)CCc1ccccc1", "note": "(stereo not drawn) [Example 19, (1-(((4,5-dihydro-5-thioxo-1,3,4-thiadiazol-2-yl)amino)carbonyl)-2,2-dimethyl-4-phenylbutyl)carbamic acid 1,1-dimethylethyl ester]", "Ki": 6.2}
{"smiles": "CC(C)(C)OC(=O)NC(C(=O)Nc1n[nH]c(=S)s1)C(C)(C)/C=C/Cc1ccccc1", "note": "(stereo not drawn) [Example 20, (E)-(1-(((4,5-dihydro-5-thioxo-1,3,4-thiadiazol-2-yl)amino)carbonyl)-2,2-dimethyl-5-phenyl-3-pentenyl)carbamic acid 1,1-dimethylethyl ester]", "Ki": 3.06}
{"smiles": "CC(C)(C)OC(=O)NC(C(=O)Nc1n[nH]c(=S)s1)C(C)(C)CCCc1ccccc1", "note": "(stereo not drawn) [Example 21, (1-(((4,5-dihydro-5-thioxo-1,3,4-thiadiazol-2-yl)amino)carbonyl)-2,2-dimethyl-5-phenylpentyl)carbamic acid 1,1-dimethylethyl ester]", "Ki": 2.72}
{"smiles": "C=CC(C)(C)C(NC(=O)OC(C)(C)C)C(=O)Nc1n[nH]c(=S)s1", "note": "(stereo not drawn) [Example 22, (1-(((4,5-dihydro-5-thioxo-1,3,4-thiadiazol-2-yl)amino)carbonyl)-2,2-dimethyl-3-butenyl)carbamic acid 1,1-dimethylethyl ester]", "Ki": 3.51}
{"smiles": "CCC(C)(C)C(NC(=O)OC(C)(C)C)C(=O)Nc1n[nH]c(=S)s1", "note": "(stereo not drawn) [Example 23, (1-(((4,5-dihydro-5-thioxo-1,3,4-thiadiazol-2-yl)amino)carbonyl)-2,2-dimethylbutyl)carbamic acid 1,1-dimethylethyl ester]", "Ki": 2.14}
{"smiles": "CC(C)(C)OC(=O)NC(C(=O)Nc1n[nH]c(=S)s1)c1ccccc1", "note": "(stereo not drawn) [Example 24, [2-[(4,5-dihydro-5-thioxo-1,3,4-thiadiazol-2-yl)amino]-2-oxo-1-phenylethyl]carbamic acid 1,1-dimethylethyl ester]", "Ki": 1.98}
{"smiles": "CC(C)(C)OC(=O)N[C@@H](Cc1ccc(NC(=O)OCc2ccccc2)cc1)C(=O)Nc1n[nH]c(=S)s1", "note": "[Example 25, (S)-[4-[3-[(4,5-dihydro-5-thioxo-1,3,4-thiadiazol-2-yl)amino]-2-[[(1,1-dimethylethoxy)carbonyl]amino]-3-oxopropyl]phenyl]carbamic acid phenylmethyl ester]", "Ki": 2.48}
{"smiles": "CC(C)(C)[C@H](NC(=O)CCc1ccccc1)C(=O)Nc1n[nH]c(=S)s1", "note": "[Example 26, (S)-N-[1-[[(4,5-dihydro-5-thioxo-1,3,4-thiadiazol-2-yl)amino]carbonyl]-2,2-dimethylpropyl]benzenpropanamide]", "Ki": 0.24}
{"smiles": "CC(C)(C)[C@H](NC(=O)CCc1c(F)c(F)c(F)c(F)c1F)C(=O)Nc1n[nH]c(=S)s1", "note": "[Example 27, (S)-N-[1-[[(4,5-dihydro-5-thioxo-1,3,4-thiadiazol-2-yl)amino]carbonyl]-2,2-dimethylpropyl]-2,3,4,5,6-pentafluorobenzenepropanamide]", "Ki": 0.91}
